Measured values reported in patent US20210022339A1, “USE OF DELAYED DORMANT APPLICATIONS OF HOMOBRASSINOLIDE ON GRAPES TO ENHANCE BUD BREAK” (priority 2019, published 2021).
Entries after “also recorded” stand apart in the source; their conditions may differ. Read-outs that look alike come from different tables or passages of the source.

How the values were obtained:
[1] = tested on: Thompson Seedless Grapes; test: Percentage bud break on fruiting canes, vineyard trial; assay type: in vivo, Vitis; details: for bud break on fruiting canes, efficacy: compared to the untreated check
Source text: (§1) A portion of an established commercial vineyard was used for the study. The HBR (FIG. 1) treatments were replicated down a single row and arranged in sets of 3 vines per plot. Plots were flagged with colored ribbon to identify the treatments and there were 4 replicates each. Spray applications were made when the vines were still dormant on Day 0 (Feb. 12, 2019) or during the delayed dormant period, when buds were swollen or at eraser stage, on Day 24 (Mar. 8, 2019)). […] Crop injury was rated using a scale of 0-10, where 0=no injury and 10=100% of tree injured. Percentage bud break was evaluated by counting numbers of shoots from 30 nodes on fruiting canes from trunk to trunk and 5 renewal spurs were chosen non-systematically on Day 34 (Mar. 18, 2019) and Day 41 (Mar. 25, 2019).
Statistical differences were highly significant and variability in the data was low. Having waited until approximately 55 chill portions (a quantification of the aggregate low temperature exposure needed for a crop to break dormancy), the dormant sprays allowed both the Hydrogen Cyanamide (Dormex®) treated and untreated vines to accumulate the maximum chilling. […] Uniformity was enhanced by both Dormex® and 5 ppm ai HBR applied as a dormant spray. Variability was lowest in the untreated check by 41 DAA even though bud break had not reached 90%. It is not unusual for bud break to exceed 100% because secondary shoots were stimulated by the effects of overcoming apical dominance by both effective rest breaking and the accumulation of maximum chilling by untreated vines. FIGS. 6 and 7.

[2] = tested on: Thompson Seedless Grapes; test: Percentage bud break on renewal spurs, vineyard trial; assay type: in vivo, Vitis; details: by 41 DAA
Source text: as §1
However, the results were statistically significant between the rest breaking treatments as a group compared to the untreated check at both evaluation intervals. […] It appeared that spur bud break had peaked by 34 DAA because by 41 DAA, percentages were mostly the same. Only the untreated check continued to break buds, which remained approximately 15% lower than the rest breaking treatments as a group.

[3] = tested on: Thompson Seedless Grapes; test: Crop injury / phytotoxicity observation; set-up: species or system Vitis; details: in vivo
Source text: as §1

[4] = tested on: Thompson Seedless Grapes; test: Number of shoots (overcoming apical dominance); assay type: in vivo, Vitis
Source text: as §1

[5] = tested on: Thompson Seedless Grapes; test: Fruit growth uniformity; set-up: species or system Vitis; details: in vivo
[6] = tested on: laboratory animals; details: cited from earlier work; for toxicity: in vivo
[7] = tested on: vines; details: cited from earlier work
[8] = tested on: nearby crops; details: in vivo; cited from earlier work
[9] = tested on: Thompson Seedless Grapes; details: grapes and other fruit crops; cited from earlier work
[10] = label for 0.1% HBR; SDS from Alzchem; cited from earlier work

## CC[C@@H](C(C)C)C(O)C(O)[C@@H](C)[C@H]1CC[C@H]2[C@@H]3COC(=O)[C@H]4C[C@H](O)[C@H](O)C[C@]4(C)[C@H]3CC[C@]12C (stereo in doubt) [HBR, homobrassinolide]
[1]; 1 ppm ai applied at early bud swell
  bud break on fruiting canes, efficacy: as effective as the standard rate of Dormex
[1]; 2 ppm ai applied at early bud swell
  bud break on fruiting canes, efficacy: as effective as the standard rate of Dormex
[1]; 5 ppm ai applied as a dormant spray
  bud break uniformity: enhanced
[1]; 5 ppm applied delayed dormant, 34 DAA
  bud break on fruiting canes, effects: statistically equivalent to the untreated check
[1]; in vivo
  active concentration range: nano molar to pico molar range
[2]; 2 ppm ai applied at bud swell
  spur bud break, effects: equivalent to the untreated check
[3]
  crop injury: without crop injury
  phytotoxicity: non-phytotoxic
[4]; 1 ppm ai
  shoots compared to control: increased shoots compared to control
[4]; 2 ppm ai
  shoots compared to control: increased shoots compared to control
[4]; 5 ppm ai
  shoots compared to control: increased shoots compared to control
[4]; both 1 ppm ai and 1 ppm ai treatments (so in the source)
  shoots compared to the standard treatment: comparable to the Hydrogen Cyanamide standard treatment
[4]; either dormant or delayed dormant spray applications
  number of shoots: increased number of shoots
[5]
  fruit growth uniformity: enhance fruit growth uniformity
[6]
  toxicity: non-toxic mode of action
[7]; in vivo
  lowering of the fruitability of vines: no such effect
[8]
  effect on nearby crops: no evidence that HBR has harmful effects on nearby crops

## N#CN [Dormex, Hydrogen Cyanamide, reference compound]
[1]; Dormex standard rate, dormant spray
  bud break uniformity: enhanced
[1]; in vivo
  amount needed to approach the effect of HBR, times: approximately 20,000 times
[2]
  spur bud break: < 100%
[9]
  phytotoxicity: can be phytotoxic
[6]; California EPA Department of Pesticide Regulation study
  adverse effects in laboratory animals: causes adverse effects in the liver, thyroid, kidney, ovaries, and testes
[6]
  toxicity: reported toxicity due to acute exposure; also recorded: can be acutely toxic when misused
[10]
  biodegradability: not readily biodegradable
[7]; repeated use over the years
  lowering of the fruitability of vines: 20-30 % per year
[8]
  effect on nearby crops: can damage nearby crops
